Data from ChEMBL document CHEMBL3588751, “A new antibacterial octaketide and cytotoxic phenylethanoid glycosides from Pogostemon cablin (Blanco) Benth” (Bioorg Med Chem Lett, 2015).
Values after ≈ are worked out from the molar mass of the structure shown.

Columns and labels:
Candida albicans = experiment: Antimicrobial activity against Candida albicans ATCC 10231 incubated for 48 hrs by broth dilution method; assay type: functional, organism-based; settings: ATCC 10231, 48 h
SK-MEL-2 = experiment: Cytotoxicity against human SK-MEL-2 cells assessed as inhibition of cell growth incubated for 48 hrs by SRB assay; assay type: functional, cell-based; settings: SK-MEL-2, 48 h
Staphylococcus aureus = experiment: Antimicrobial activity against Staphylococcus aureus BAA-2313 incubated for 48 hrs by broth dilution method; assay type: functional, organism-based; settings: BAA-2313, 48 h
A549 = experiment: Cytotoxicity against human A549 cells assessed as inhibition of cell growth incubated for 48 hrs by SRB assay; assay type: functional, cell-based; settings: A549, 48 h
Bacillus subtilis = experiment: Antimicrobial activity against Bacillus subtilis ATCC 6633 incubated for 48 hrs by broth dilution method; assay type: functional, organism-based; settings: ATCC 6633, 48 h
HCT-15 = experiment: Cytotoxicity against human HCT15 cells assessed as inhibition of cell growth incubated for 48 hrs by SRB assay; assay type: functional, cell-based; settings: HCT-15, 48 h
Saccharomyces cerevisiae = experiment: Antimicrobial activity against Saccharomyces cerevisiae ATCC 9763 incubated for 48 hrs by broth dilution method; assay type: functional, organism-based; settings: ATCC 9763, 48 h
SK-OV-3 = experiment: Cytotoxicity against human SKOV3 cells assessed as inhibition of cell growth incubated for 48 hrs by SRB assay; assay type: functional, cell-based; settings: SK-OV-3, 48 h

Row | IC50 (Candida albicans) [µg/mL] | IC50 (Staphylococcus aureus) [µg/mL] | MIC (Staphylococcus aureus) [µg/mL] | IC50 (Bacillus subtilis) [µg/mL] | MIC (Bacillus subtilis) [µg/mL] | IC50 (Saccharomyces cerevisiae) [µg/mL] | Compound | IC50 (SK-MEL-2) [µM] | IC50 (A549) [µM] | IC50 (HCT-15) [µM] | IC50 (SK-OV-3) [µM] | MFC (Candida albicans) [µg/mL] | MFC (Saccharomyces cerevisiae) [µg/mL]
1 | > 200 | 165 (≈ 264 µM) | 200 (≈ 320 µM) | 106 (≈ 169 µM) | 150 (≈ 240 µM) | > 200 | C[C@@H]1O[C@@H](O[C@@H]2[C@@H](O)[C@H](OCCc3ccc(O)c(O)c3)O[C@H](CO)[C@@H]2OC(=O)/C=C/c2ccc(O)c(O)c2)[C@H](O)[C@H](O)[C@H]1O | 4.5 | 6.78 | 7.03 | 9.52 | – | –
2 | > 200 | 140 (≈ 556 µM) | 200 (≈ 793 µM) | 84.1 (≈ 333 µM) | 150 (≈ 595 µM) | > 200 | CC[C@@H](C)C(=O)c1c(O)cc(O)cc1CC(=O)O | > 30 | > 30 | > 30 | > 30 | – | –
3 | > 200 | 156 (≈ 249 µM) | 200 (≈ 320 µM) | 98.5 (≈ 158 µM) | 150 (≈ 240 µM) | > 200 | C[C@@H]1O[C@@H](O[C@@H]2[C@@H](O)[C@H](OCCc3ccc(O)c(O)c3)O[C@H](CO)[C@H]2OC(=O)/C=C/c2ccc(O)c(O)c2)[C@H](O)[C@H](O)[C@H]1O [ACETOSIDE] | 8.52 | 5.81 | 2.73 | 7.61 | – | –
4 | 2.1 (≈ 2.27 µM) | – | – | – | – | 0.5 (≈ 0.541 µM) | C[C@@H]1[C@H](O)[C@@H](C)/C=C/C=C/C=C/C=C/C=C/C=C/C=C/[C@H](O[C@@H]2O[C@H](C)[C@@H](O)[C@H](N)[C@@H]2O)C[C@@H]2O[C@](O)(C[C@@H](O)C[C@@H](O)[C@H](O)CC[C@@H](O)C[C@@H](O)CC(=O)O[C@H]1C)C[C@H](O)[C@H]2C(=O)O [AMPHOTERICIN B] | – | – | – | – | 5 (≈ 5.41 µM) | 5 (≈ 5.41 µM)
5 | – | – | – | – | – | – | COc1cccc2c1C(=O)c1c(O)c3c(c(O)c1C2=O)C[C@@](O)(C(=O)CO)C[C@@H]3O[C@H]1C[C@H](N)[C@H](O)[C@H](C)O1 [DOXORUBICIN] | – | – | 0.109 | – | – | –
6 | – | 8.5 | 10 | 4.5 | 5 | – | CN[C@@H]1[C@H](O[C@H]2[C@H](O[C@H]3[C@H](O)[C@@H](O)[C@H](N=C(N)N)[C@@H](O)[C@@H]3N=C(N)N)O[C@@H](C)[C@]2(O)C=O)O[C@@H](CO)[C@H](O)[C@H]1O.CN[C@@H]1[C@H](O[C@H]2[C@H](O[C@H]3[C@H](O)[C@@H](O)[C@H](N=C(N)N)[C@@H](O)[C@@H]3N=C(N)N)O[C@@H](C)[C@]2(O)C=O)O[C@@H](CO)[C@H](O)[C@H]1O.O=S(=O)(O)O.O=S(=O)(O)O.O=S(=O)(O)O [STREPTOMYCIN SULFATE] | – | – | – | – | – | –
